Measured values published in patent publication US8846698B2, “Pyrrolo[2,3-d]pyrimidine tropomysin-related kinase inhibitors” (Pfizer Limited, priority 2011, dated 2014).
Like-named read-outs stand apart in the source and are kept apart here.

How the values were obtained:
[1] = molecular target: TRKC (Homo sapiens (Human), UniProt Q16288); test: Cell based DiscoveRx PathHunter antagonist assay, TRKC cell line; details: read-out: TrkC cell potency
Protocol: After the Detection Reagent addition, plates are covered and incubated at room temperature for 60 minutes. […] Test compound data are expressed as percentage inhibition defined by HPE and ZPE values for each plate. Percentage inhibition in the presence of test compound is plotted against compound concentration on a log scale to determine an IC50 from the resultant sigmoid curve. Cell Based Assays were carried out using Cell lines from DiscoveRx utilising their PathHunter technology and reagents in an antagonist assay:
The assays are based upon DiscoveRx's proprietary Enzyme Fragment Complementation (EFC) technology. In the case of the TRK cell lines, the enzyme acceptor (EA) protein is fused to a SH2 protein and the TRK receptor of interest has been tagged with a Prolink tag.
Upon neurotrophin binding, the TRK receptor becomes phosphorylated, and the tagged SH2 protein binds.
This means that the IC50 is a good measure of affinity and should be unaffected by concentration neurotrophin stimulant.
Cryopreserved PathHunter cells are used from either in-house produced batches or bulk batches bought directly from DiscoveRx. Cryopreserved cells are resuscitated, spun 1000 rpm for 4 min to remove freezing media, and resuspended in MEM+0.5% horse serum (both Invitrogen) to 5e^5 cells/ml. The cells are then plated using a Multidrop into Greiner white tissue culture treated plates at 20 ul/well and incubated for 24 h at 37° C., 5% CO2, high humidity. On the day of the assay, the cell plates are allowed to cool to room temperature for 30 min prior to the assay.
Plates containing 1 ul of serially diluted compound, standard and HPE/ZPE are diluted 1/66 in assay buffer (PBS minus Ca^2+, minus Mg^2+ with 0.05% pluronic F127) using a Wellmate. […] The plates are left at room temperature for a further 2 hours before addition of 10 ul of the DiscoveRx PathHunter detection reagent (made up by adding 1 part Galacton Star, 5 parts Emerald II and 19 parts Cell Assay Buffer as per the manufacturer's instructions).
After reagent addition, plates are covered and incubated at room temperature for 60 minutes. Luminescence signal is read using an Envision. Test compound data are expressed as percentage inhibition defined by HPE and ZPE values for each plate. Percentage inhibition in the presence of test compound is plotted against compound concentration on a log scale to determine an […] from the resultant sigmoid curve.

[2] = molecular target: BCRP (ABCG2) (Homo sapiens (Human), UniProt Q9UNQ0); test: MDCK-BCRP efflux assay (in vitro brain penetration); assay type: in vitro ADME; details: dog; for Papp A→B: A to B, read-out: RRCK BCRP Papp AB; for Papp B→A: B to A, read-out: RRCK BCRP Papp BA
Sequence of BCRP (ABCG2) (Q9UNQ0 whole entry): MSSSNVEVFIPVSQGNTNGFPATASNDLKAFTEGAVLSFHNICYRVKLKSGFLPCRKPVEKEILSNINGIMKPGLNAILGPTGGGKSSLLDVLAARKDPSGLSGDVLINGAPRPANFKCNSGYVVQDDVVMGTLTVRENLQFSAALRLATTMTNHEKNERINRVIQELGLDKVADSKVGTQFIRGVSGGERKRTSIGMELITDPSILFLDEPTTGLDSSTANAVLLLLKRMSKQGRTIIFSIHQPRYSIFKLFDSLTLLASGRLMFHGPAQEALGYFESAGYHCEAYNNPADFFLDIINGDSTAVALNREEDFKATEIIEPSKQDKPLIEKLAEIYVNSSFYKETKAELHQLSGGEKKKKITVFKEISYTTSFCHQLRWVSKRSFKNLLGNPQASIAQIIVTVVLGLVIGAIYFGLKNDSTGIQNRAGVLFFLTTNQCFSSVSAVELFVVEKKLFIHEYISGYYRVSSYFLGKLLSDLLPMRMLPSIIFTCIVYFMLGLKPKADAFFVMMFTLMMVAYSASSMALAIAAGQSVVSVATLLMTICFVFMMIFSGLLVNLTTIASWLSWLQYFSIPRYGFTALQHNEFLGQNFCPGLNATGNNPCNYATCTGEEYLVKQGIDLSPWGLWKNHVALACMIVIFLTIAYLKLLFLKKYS

[3] = molecular target: MDR1 (Homo sapiens (Human), UniProt P08183); test: MDCK-MDR1 assay (in vitro brain penetration); assay type: in vitro ADME; details: human; for Papp A→B: MDCK-MDR1, A to B, read-out: MDCK MDR1 Papp AB; for Papp B→A: read-out: MDCK MDR1 Papp BA
Sequence of MDR1 (P08183 whole entry): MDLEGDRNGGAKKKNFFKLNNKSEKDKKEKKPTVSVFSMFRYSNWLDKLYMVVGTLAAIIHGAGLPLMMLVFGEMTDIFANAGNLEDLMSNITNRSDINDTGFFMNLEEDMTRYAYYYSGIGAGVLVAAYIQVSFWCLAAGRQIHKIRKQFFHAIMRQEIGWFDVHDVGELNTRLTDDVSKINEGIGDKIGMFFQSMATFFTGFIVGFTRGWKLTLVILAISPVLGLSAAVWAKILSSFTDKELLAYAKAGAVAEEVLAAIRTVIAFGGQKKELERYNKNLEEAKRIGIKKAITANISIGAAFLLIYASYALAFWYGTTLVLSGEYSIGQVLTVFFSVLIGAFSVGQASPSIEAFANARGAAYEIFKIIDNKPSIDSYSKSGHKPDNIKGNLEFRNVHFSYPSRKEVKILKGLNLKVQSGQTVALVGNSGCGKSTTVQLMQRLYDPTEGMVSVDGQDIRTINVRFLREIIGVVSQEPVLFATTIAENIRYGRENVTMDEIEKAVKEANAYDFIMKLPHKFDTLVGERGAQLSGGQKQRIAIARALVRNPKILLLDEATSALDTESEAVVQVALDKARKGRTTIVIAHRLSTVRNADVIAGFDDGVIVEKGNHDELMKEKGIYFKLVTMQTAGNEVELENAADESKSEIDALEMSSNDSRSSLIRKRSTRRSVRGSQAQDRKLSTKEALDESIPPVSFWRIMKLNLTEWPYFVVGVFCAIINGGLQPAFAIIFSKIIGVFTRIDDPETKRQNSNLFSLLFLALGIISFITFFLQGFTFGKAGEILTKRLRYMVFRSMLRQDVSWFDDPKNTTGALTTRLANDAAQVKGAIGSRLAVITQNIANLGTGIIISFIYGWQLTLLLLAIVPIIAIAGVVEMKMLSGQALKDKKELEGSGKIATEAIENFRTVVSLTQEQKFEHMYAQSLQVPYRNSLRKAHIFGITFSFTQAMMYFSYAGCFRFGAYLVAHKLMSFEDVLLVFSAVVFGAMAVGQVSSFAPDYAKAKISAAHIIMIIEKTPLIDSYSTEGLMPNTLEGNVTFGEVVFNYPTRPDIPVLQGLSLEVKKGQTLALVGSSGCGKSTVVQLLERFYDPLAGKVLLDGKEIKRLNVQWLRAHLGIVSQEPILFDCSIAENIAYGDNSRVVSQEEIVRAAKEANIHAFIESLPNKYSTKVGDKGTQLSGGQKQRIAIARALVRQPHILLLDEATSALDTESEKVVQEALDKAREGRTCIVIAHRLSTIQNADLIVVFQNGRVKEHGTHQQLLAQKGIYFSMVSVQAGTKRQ
Text: MDCK-MDR1: MDCK-MDR1 data were collected according to the method described in “Are MDCK Cells Transfected with the Human MDR1 Gene a Good Model of the Human Intestinal Mucosa?”
http://www.springerlink.com/content/qfhqlqbr4fnp3 khf/fulltext.pdf

[4] = molecular target: T1, TRKB (Homo sapiens (Human), UniProt Q16620); test: biochemical
T1 sequence (Q16620 32-822 limits assumed): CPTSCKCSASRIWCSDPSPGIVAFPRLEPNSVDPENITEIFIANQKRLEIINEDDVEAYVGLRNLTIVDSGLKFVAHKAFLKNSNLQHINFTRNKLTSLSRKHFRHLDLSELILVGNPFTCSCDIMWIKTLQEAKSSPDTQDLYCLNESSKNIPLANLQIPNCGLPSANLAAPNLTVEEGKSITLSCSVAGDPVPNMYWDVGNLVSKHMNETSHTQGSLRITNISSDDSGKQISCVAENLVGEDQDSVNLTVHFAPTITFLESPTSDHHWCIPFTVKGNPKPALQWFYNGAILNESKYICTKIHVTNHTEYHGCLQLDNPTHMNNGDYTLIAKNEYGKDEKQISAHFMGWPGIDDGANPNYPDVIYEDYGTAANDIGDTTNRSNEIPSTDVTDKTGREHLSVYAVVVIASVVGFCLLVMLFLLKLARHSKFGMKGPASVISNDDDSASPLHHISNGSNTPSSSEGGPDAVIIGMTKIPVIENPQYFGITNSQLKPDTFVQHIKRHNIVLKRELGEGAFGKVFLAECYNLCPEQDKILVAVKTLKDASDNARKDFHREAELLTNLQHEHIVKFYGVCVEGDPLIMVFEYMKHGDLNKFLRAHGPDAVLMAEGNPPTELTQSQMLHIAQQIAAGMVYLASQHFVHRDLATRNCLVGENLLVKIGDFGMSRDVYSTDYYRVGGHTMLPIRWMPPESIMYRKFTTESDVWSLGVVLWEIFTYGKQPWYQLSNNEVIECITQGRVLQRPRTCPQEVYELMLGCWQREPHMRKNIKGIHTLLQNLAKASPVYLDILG

[5] = molecular target: T2, TRKA (Homo sapiens (Human), UniProt P04629); test: Cell based DiscoveRx PathHunter antagonist assay, TRKA cell line; details: read-out: TrkA cell potency
Target sequence in this assay (P04629 33-796): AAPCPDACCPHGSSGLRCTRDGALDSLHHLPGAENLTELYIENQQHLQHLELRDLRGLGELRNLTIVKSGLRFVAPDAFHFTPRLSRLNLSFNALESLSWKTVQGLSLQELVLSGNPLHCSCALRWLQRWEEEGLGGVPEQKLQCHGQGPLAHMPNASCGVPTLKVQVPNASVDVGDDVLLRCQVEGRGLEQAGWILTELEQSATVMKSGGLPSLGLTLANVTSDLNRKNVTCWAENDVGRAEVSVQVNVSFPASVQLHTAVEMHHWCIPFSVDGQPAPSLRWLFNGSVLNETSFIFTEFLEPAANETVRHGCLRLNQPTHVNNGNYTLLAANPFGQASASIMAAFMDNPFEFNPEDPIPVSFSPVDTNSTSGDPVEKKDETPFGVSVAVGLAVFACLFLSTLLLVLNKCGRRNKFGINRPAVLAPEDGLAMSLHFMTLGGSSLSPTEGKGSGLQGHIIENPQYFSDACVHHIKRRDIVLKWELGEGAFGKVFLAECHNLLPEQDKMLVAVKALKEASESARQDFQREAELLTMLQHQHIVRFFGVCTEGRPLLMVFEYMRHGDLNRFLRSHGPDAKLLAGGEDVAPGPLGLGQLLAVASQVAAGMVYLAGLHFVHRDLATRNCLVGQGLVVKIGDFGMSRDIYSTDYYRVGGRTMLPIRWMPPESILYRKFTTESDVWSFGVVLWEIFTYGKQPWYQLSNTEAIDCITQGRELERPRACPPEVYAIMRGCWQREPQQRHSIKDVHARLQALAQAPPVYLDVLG

[6] = molecular target: T1, TRKB; test: cell-based; details: TrkB cell potency, TRKB PathHunter cell line
[7] = molecular target: T2, TRKA; test: Isolated TRK enzyme assay (HTRF KinEASE-TK), TRKA; assay type: biochemical; details: isolated TRKA enzyme; read-out: TrkA enzyme potency
Target sequence in this assay (P04629 441-796): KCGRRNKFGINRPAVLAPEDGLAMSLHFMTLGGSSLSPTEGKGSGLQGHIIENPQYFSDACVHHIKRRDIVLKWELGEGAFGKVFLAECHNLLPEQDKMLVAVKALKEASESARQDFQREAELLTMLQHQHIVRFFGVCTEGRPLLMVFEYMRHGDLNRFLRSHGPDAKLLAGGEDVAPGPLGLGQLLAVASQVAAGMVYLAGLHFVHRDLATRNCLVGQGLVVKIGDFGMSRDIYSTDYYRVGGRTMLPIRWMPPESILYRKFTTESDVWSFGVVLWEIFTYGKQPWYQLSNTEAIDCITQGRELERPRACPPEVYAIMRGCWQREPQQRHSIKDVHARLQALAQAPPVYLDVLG

Sequence of TRKC (Q16288 32-839): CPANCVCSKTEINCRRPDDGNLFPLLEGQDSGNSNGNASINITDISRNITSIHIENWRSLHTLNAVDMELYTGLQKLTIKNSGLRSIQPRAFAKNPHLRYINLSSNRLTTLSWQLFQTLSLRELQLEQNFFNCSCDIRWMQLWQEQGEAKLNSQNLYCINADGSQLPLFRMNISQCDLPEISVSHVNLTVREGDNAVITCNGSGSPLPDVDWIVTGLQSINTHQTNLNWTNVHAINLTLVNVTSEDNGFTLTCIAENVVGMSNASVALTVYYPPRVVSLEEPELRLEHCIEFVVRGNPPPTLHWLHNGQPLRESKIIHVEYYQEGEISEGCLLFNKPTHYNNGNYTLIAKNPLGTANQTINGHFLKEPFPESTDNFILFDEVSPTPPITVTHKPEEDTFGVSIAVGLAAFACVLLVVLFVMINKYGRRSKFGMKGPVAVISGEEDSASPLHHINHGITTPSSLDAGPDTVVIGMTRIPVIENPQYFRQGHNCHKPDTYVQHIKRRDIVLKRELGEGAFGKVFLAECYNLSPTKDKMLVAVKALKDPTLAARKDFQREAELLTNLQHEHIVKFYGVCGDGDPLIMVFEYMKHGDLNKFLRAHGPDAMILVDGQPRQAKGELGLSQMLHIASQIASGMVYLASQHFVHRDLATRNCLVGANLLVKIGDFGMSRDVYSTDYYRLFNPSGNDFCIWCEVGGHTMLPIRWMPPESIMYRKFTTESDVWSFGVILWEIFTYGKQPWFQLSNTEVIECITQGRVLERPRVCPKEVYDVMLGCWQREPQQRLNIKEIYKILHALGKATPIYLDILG

IC50 [1] [nM]	Papp A→B [2] [×10⁻⁶ cm/s]	Papp B→A [2] [×10⁻⁶ cm/s]	Papp A→B [3] [×10⁻⁶ cm/s]	Papp B→A ([3]; MDCK-MDR1, B to A) [×10⁻⁶ cm/s]	IC50 ([4]; TrkB enzyme potency) [nM]	IC50 [5] [nM]	IC50 [6] [nM]	IC50 [7] [nM]	Papp B→A ([3]; MDCK-MDR1, MDCK-MDR1, B to A) [×10⁻⁶ cm/s]	IC50 ([4]; isolated TRKB enzyme, read-out: TrkB enzyme potency) [nM]	SMILES
4.4	12	39	< 1	13	162	5.7	6.5	3.9	–	–	CC(C)(C)n1cc(C(=O)c2cncc(NC(=O)Cn3cc(C4CC4)nn3)c2)c2cncnc21 [Example 4, N-{5-[(7-tert-butyl-7H-pyrrolo[2,3-d]pyrimidin-5-yl)carbonyl]pyridin-3-yl}-2-(4-cyclopropyl-1H-1,2,3-triazol-1-yl)acetamide]
5.9	9	43	< 1	–	–	13	6.6	3.7	20	94	C[C@@H](CO)n1cc(C(=O)c2cncc(NC(=O)Cc3ccc(C(F)(F)F)cc3)c2)c2cncnc21 [Example 9, N-[5-({7-[(1S)-2-Hydroxy-1-methylethyl]-7H-pyrrolo[2,3-d]pyrimidin-5-yl}carbonyl)pyridin-3-yl]-2-[4-(trifluoromethyl)phenyl]acetamide]
8.6	7.5	32	< 1	16	30	14	5.9	3.5	–	–	Cc1cc(C(F)(F)F)nn1CC(=O)Nc1cncc(C(=O)c2cn(C(C)(C)CO)c3ncncc23)c1 [Example 26, N-(5-{[7-(2-hydroxy-1,1-dimethylethyl)-7H-pyrrolo[2,3-d]pyrimidin-5-yl]carbonyl}pyridin-3-yl)-2-[5-methyl-3-(trifluoromethyl)-1H-pyrazol-1-yl]acetamide]
–	7	31	< 1	–	–	–	–	–	18	–	CC(C)(CO)n1cc(C(=O)c2cncc(NC(=O)Cc3ccc(Cl)cn3)c2)c2cnc(N)nc21 [Example 46, N-(5-{[2-Amino-7-(2-hydroxy-1,1-dimethylethyl)-7H-pyrrolo[2,3-d]pyrimidin-5-yl]carbonyl}pyridin-3-yl)-2-(5-chloropyridin-2-yl)acetamide]
